From PubChem BioAssay AID2060501 (Molecular Pharmacology Branch, DTP, NCI, 2025)

Test system: 282377-053-R-J1-PDC complex spheroids, viability
Experiment: Anticancer human tumor 282377-053-R-J1-PDC patient-derived colon adenocarcinoma cell line growth inhibition [GQUAD]
Details: for IC50: curve of first compound; for viability, T/C: stronger effect = lower value
Procedure, shortened: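 Tumor cells were grown as complex spheroids with HUVEC endothelial cells and mesenchymal stem cells as stroma. G-quadruplex stabilizers were combined with targeted agents over half-log dilutions from near the clinical Cmax, or from 10 microM.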

[1] = second compound 0.0316 µM, first compound 0.0316 µM
[2] = second compound 0.0316 µM, first compound 0.1 µM
[3] = second compound 0.0316 µM, first compound 0.316 µM
[4] = second compound 0.0316 µM, first compound 1 µM
[5] = second compound 0.0316 µM, first compound 3.16 µM
[6] = second compound 0.0316 µM, first compound 10 µM
[7] = second compound 0.1 µM, first compound 0.0316 µM
[8] = second compound 0.1 µM, first compound 0.1 µM
[9] = second compound 0.1 µM, first compound 0.316 µM
[10] = second compound 0.1 µM, first compound 1 µM
[11] = second compound 0.1 µM, first compound 3.16 µM
[12] = second compound 0.1 µM, first compound 10 µM
[13] = second compound 0.316 µM, first compound 0.0316 µM
[14] = second compound 0.316 µM, first compound 0.1 µM
[15] = second compound 0.316 µM, first compound 0.316 µM
[16] = second compound 0.316 µM, first compound 1 µM
[17] = second compound 0.316 µM, first compound 3.16 µM
[18] = second compound 0.316 µM, first compound 10 µM
[19] = second compound 1 µM, first compound 0.0316 µM
[20] = second compound 1 µM, first compound 0.1 µM
[21] = second compound 1 µM, first compound 0.316 µM
[22] = second compound 1 µM, first compound 1 µM
[23] = second compound 1 µM, first compound 3.16 µM
[24] = second compound 1 µM, first compound 10 µM
[25] = second compound 3.16 µM, first compound 0.0316 µM
[26] = second compound 3.16 µM, first compound 0.1 µM
[27] = second compound 3.16 µM, first compound 0.316 µM
[28] = second compound 3.16 µM, first compound 1 µM
[29] = second compound 3.16 µM, first compound 3.16 µM
[30] = second compound 3.16 µM, first compound 10 µM
[31] = second compound 10 µM, first compound 0.0316 µM
[32] = second compound 10 µM, first compound 0.1 µM
[33] = second compound 10 µM, first compound 0.316 µM
[34] = second compound 10 µM, first compound 1 µM
[35] = second compound 10 µM, first compound 3.16 µM
[36] = second compound 10 µM, first compound 10 µM
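Note: spheroids exposed to compounds for 7 days before readout.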
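Throughout, for viability, T/C: percent of vehicle DMSO control viability with 100% = untreated-like growth.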

SMILES: CC(=O)O[C@H]1C(=O)[C@@]2(C)[C@H]([C@H](OC(=O)c3ccccc3)[C@]3(O)C[C@H](OC(=O)[C@H](O)[C@@H](NC(=O)c4ccccc4)c4ccccc4)C(C)=C1C3(C)C)[C@]1(OC(C)=O)CO[C@@H]1C[C@@H]2O + Cc1cnc(CNC(=O)c2c(=O)c3ccc(N4CCCN(C)CC4)nc3n3c2sc2ccccc23)cn1
- IC50 (second compound 0.0316 µM): < 31.6 nM
- IC50 (second compound 0.1 µM): < 31.6 nM
- IC50 (second compound 0.316 µM): < 31.6 nM
- IC50 (second compound 1 µM): < 31.6 nM
- IC50 (second compound 3.16 µM): < 31.6 nM
- IC50 (second compound 10 µM): < 31.6 nM
- viability, T/C [1]: 42.7%
- viability, T/C [2]: 17.2%
- viability, T/C [3]: 21.4%
- viability, T/C [4]: 18.4%
- viability, T/C [5]: 20.4%
- viability, T/C [6]: 24.9%
- viability, T/C [7]: 44.1%
- viability, T/C [8]: 22.9%
- viability, T/C [9]: 23.9%
- viability, T/C [10]: 21.6%
- viability, T/C [11]: 26.1%
- viability, T/C [12]: 27.9%
- viability, T/C [13]: 47.7%
- viability, T/C [14]: 24.4%
- viability, T/C [15]: 24.9%
- viability, T/C [16]: 31.5%
- viability, T/C [17]: 33.7%
- viability, T/C [18]: 33.9%
- viability, T/C [19]: 38.1%
- viability, T/C [20]: 26.6%
- viability, T/C [21]: 24.6%
- viability, T/C [22]: 32.1%
- viability, T/C [23]: 35.2%
- viability, T/C [24]: 31.4%
- viability, T/C [25]: 37.8%
- viability, T/C [26]: 23.8%
- viability, T/C [27]: 29.8%
- viability, T/C [28]: 25.2%
- viability, T/C [29]: 28.4%
- viability, T/C [30]: 30.4%
- viability, T/C [31]: 25.5%
- viability, T/C [32]: 17%
- viability, T/C [33]: 23%
- viability, T/C [34]: 24.1%
- viability, T/C [35]: 35.6%
- viability, T/C [36]: 18.4%

SMILES: CCCS(=O)(=O)Nc1ccc(F)c(C(=O)c2c[nH]c3ncc(-c4ccc(Cl)cc4)cc23)c1F + Cc1cnc(CNC(=O)c2c(=O)c3ccc(N4CCCN(C)CC4)nc3n3c2sc2ccccc23)cn1
- IC50 (second compound 0.0316 µM): 2280 nM
- IC50 (second compound 0.1 µM): 1480 nM
- IC50 (second compound 0.316 µM): 393 nM
- IC50 (second compound 1 µM): 34.9 nM
- IC50 (second compound 3.16 µM): < 31.6 nM
- IC50 (second compound 10 µM): < 31.6 nM
- viability, T/C [1]: 89.5%
- viability, T/C [2]: 53.1%
- viability, T/C [3]: 72%
- viability, T/C [4]: 52.7%
- viability, T/C [5]: 54.9%
- viability, T/C [6]: 11.8%
- viability, T/C [7]: 77.5%
- viability, T/C [8]: 63.9%
- viability, T/C [9]: 56.6%
- viability, T/C [10]: 55.7%
- viability, T/C [11]: 45.4%
- viability, T/C [12]: 11.6%
- viability, T/C [13]: 64.5%
- viability, T/C [14]: 57%
- viability, T/C [15]: 46.9%
- viability, T/C [16]: 39.5%
- viability, T/C [17]: 41.4%
- viability, T/C [18]: 11.3%
- viability, T/C [19]: 52.6%
- viability, T/C [20]: 44.6%
- viability, T/C [21]: 38.3%
- viability, T/C [22]: 30.3%
- viability, T/C [23]: 34.4%
- viability, T/C [24]: 9.31%
- viability, T/C [25]: 39.5%
- viability, T/C [26]: 29.4%
- viability, T/C [27]: 28.8%
- viability, T/C [28]: 25.9%
- viability, T/C [29]: 30.4%
- viability, T/C [30]: 0.11%
- viability, T/C [31]: 31.3%
- viability, T/C [32]: 31.3%
- viability, T/C [33]: 22.9%
- viability, T/C [34]: 23.3%
- viability, T/C [35]: 7.59%
- viability, T/C [36]: 0.33%

SMILES: Nc1ccn(C2OC(CO)C(O)C2(F)F)c(=O)n1 (stereo unspecified) + Cc1cnc(CNC(=O)c2c(=O)c3ccc(N4CCCN(C)CC4)nc3n3c2sc2ccccc23)cn1
- IC50 (second compound 0.0316 µM): 157 nM
- IC50 (second compound 0.1 µM): 144 nM
- IC50 (second compound 0.316 µM): 120 nM
- IC50 (second compound 1 µM): 49.4 nM
- IC50 (second compound 3.16 µM): < 31.6 nM
- IC50 (second compound 10 µM): < 31.6 nM
- viability, T/C [1]: 98.5%
- viability, T/C [2]: 65.9%
- viability, T/C [3]: 25.2%
- viability, T/C [4]: 24%
- viability, T/C [5]: 22.9%
- viability, T/C [6]: 16.7%
- viability, T/C [7]: 104%
- viability, T/C [8]: 61.7%
- viability, T/C [9]: 24.5%
- viability, T/C [10]: 24.9%
- viability, T/C [11]: 25.1%
- viability, T/C [12]: 16.3%
- viability, T/C [13]: 81.6%
- viability, T/C [14]: 53.6%
- viability, T/C [15]: 32%
- viability, T/C [16]: 22.1%
- viability, T/C [17]: 22.7%
- viability, T/C [18]: 16.2%
- viability, T/C [19]: 53.9%
- viability, T/C [20]: 44.1%
- viability, T/C [21]: 25.6%
- viability, T/C [22]: 22.4%
- viability, T/C [23]: 20.4%
- viability, T/C [24]: 15.7%
- viability, T/C [25]: 49.1%
- viability, T/C [26]: 37.5%
- viability, T/C [27]: 23.2%
- viability, T/C [28]: 21%
- viability, T/C [29]: 22.4%
- viability, T/C [30]: 15.9%
- viability, T/C [31]: 39.2%
- viability, T/C [32]: 33.5%
- viability, T/C [33]: 22.1%
- viability, T/C [34]: 20.3%
- viability, T/C [35]: 20%
- viability, T/C [36]: 10.8%
